The source of these data is ChEMBL document CHEMBL4334516, “Kinase Chemodiversity from the Arctic: The Breitfussins” (J Med Chem, 2019).

Data set [1] is described as follows: Stability in human liver microsomes supplemented with UDP-glucuronic acid assessed as parent compound remaining level at 5 uM incubated for 1 hr by LC-MS analysis. As to conditions: read-out: Stability. The data set is classed as ADME, Microsome. On the technique in general: Liver microsomes are a subcellular fraction often used to study metabolism.
The target of data set [2] is NUAK family SNF1-like kinase 1 (Homo sapiens) (UniProt O60285). The experiment in a line: Inhibition of NUAK1 (unknown origin) by assessed as residual enzyme activity at 1 uM by [33P]-ATP filter binding kinase assay relative to control.
For data set [3], the target named is T1, Serine/threonine-protein kinase pim-1 (Homo sapiens, UniProt P11309). The experiment in a line: Inhibition of PIM1 (unknown origin) assessed as residual enzyme activity at 50 uM by [33P]-ATP filter binding kinase assay relative to control.
For data set [4], the target named is T2, Mitogen-activated protein kinase kinase kinase kinase 2 (Homo sapiens) (UniProt Q12851).
T2 sequence (whole entry): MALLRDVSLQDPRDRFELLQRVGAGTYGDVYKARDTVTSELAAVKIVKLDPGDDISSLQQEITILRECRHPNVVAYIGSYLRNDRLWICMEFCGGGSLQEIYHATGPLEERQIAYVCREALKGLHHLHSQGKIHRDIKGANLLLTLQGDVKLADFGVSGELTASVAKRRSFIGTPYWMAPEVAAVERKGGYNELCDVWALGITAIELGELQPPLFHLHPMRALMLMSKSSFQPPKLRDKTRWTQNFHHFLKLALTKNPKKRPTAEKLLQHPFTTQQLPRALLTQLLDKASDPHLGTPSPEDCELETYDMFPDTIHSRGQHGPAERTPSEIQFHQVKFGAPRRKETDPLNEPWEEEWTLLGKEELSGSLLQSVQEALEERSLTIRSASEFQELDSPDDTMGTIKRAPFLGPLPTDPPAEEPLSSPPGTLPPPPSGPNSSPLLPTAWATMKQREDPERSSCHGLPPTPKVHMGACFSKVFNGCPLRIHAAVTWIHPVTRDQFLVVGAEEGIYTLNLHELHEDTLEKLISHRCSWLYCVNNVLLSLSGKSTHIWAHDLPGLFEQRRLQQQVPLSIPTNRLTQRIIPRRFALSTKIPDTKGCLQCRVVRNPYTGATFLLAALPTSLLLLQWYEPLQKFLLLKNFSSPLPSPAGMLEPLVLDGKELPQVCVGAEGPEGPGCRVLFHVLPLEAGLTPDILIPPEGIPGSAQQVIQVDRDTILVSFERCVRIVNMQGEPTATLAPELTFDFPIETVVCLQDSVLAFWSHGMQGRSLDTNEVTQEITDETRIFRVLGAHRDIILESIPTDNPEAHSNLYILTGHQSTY
The experiment in a line: Binding affinity to wild-type human partial length GCK (M1 to G318 residues) expressed in mammalian expression system assessed as residual binding level at 10 uM by active-site directed competition binding assay based Kinomescan method relative to control.

In data set [5] the target is Serine/threonine-protein kinase 17A (Homo sapiens) (UniProt Q9UEE5). The experiment in a line: Binding affinity to wild-type human partial length DRAK1 (R32 to E363 residues) expressed in bacterial expression system assessed as residual binding level at 10 uM by active-site directed competition binding assay based Kinomescan method relative to control.
Data set [6] has as its target Serine/threonine-protein kinase pim-3 (Homo sapiens, UniProt Q86V86). The experiment in a line: Binding affinity to wild-type human partial length PIM3 (G16 to A317 residues) expressed in bacterial expression system by active-site directed competition binding assay based Kinomescan method.
For data set [7], the target named is Citron Rho-interacting kinase (Homo sapiens, UniProt O14578). The experiment in a line: Binding affinity to wild-type human partial length CIT (M68 to E432 residues) expressed in bacterial expression system by active-site directed competition binding assay based Kinomescan method.
Data set [8] concerns the target Mitogen-activated protein kinase kinase kinase 9 (Homo sapiens, UniProt P80192). In words: Inhibition of MLK1 (unknown origin) assessed as residual enzyme activity at 1 uM by [33P]-ATP filter binding kinase assay relative to control.
A short description of data set [9]: Stability in mouse liver microsomes supplemented with UDP-glucuronic acid assessed as parent compound remaining level at 5 uM incubated for 1 hr by LC-MS analysis. The data set is classed as ADME, Microsome. The conditions noted are these: read-out: Stability.
Data set [10] addresses Non-receptor tyrosine-protein kinase TYK2 (Homo sapiens, UniProt P29597). In words: Binding affinity to wild-type human partial length TYK2 JH2 domain-pseudokinase expressed in mammalian expression system by active-site directed competition binding assay based Kinomescan method.
Data set [11] addresses T1, Serine/threonine-protein kinase pim-1. The experiment in a line: Binding affinity to wild-type human partial length PIM1 (A15 to K313 residues) expressed in bacterial expression system by active-site directed competition binding assay based Kinomescan method.
Another data set has as its system MCF7. The experiment in a line: Cytotoxicity in human MCF7 cells assessed as reduction in cell viability incubated for 72 hrs by SRB assay. As to conditions: MCF7, 72 h.
The target of data set [12] is Serine/threonine-protein kinase RIO1 (Homo sapiens, UniProt Q9BRS2). The experiment in a line: Binding affinity to wild-type human full length RIOK1 (M1 to K568 residues) expressed in bacterial expression system by active-site directed competition binding assay based Kinomescan method.
A short description of data set [13]: Toxicity in zebrafish embryos assessed as induction of necrosis by measuring unaffected embryos level at 0.1 uM after 72 hrs (reference value: 100%). Further details: species or system Danio rerio. As to conditions: in vivo.
The target in data set [14] is Serine/threonine-protein kinase pim-2 (Homo sapiens, UniProt Q9P1W9). The experiment in a line: Binding affinity to wild-type human partial length PIM2 (M1 to E291 residues) expressed in bacterial expression system assessed as residual binding level at 10 uM by active-site directed competition binding assay based Kinomescan method relative to control.
Data set [15] can be described thus: Toxicity in zebrafish embryos assessed as induction of general edema by measuring unaffected embryos level at 1.4 uM after 72 hrs (reference value: 100%). Further details: species or system Danio rerio. As to conditions: in vivo.
Data set [16] has as its target Phosphatidylinositol 4-kinase beta (Homo sapiens, UniProt Q9UBF8). The experiment in a line: Binding affinity to wild-type human full length PIK4CB (M1 to M828 residues) expressed in mammalian expression system by active-site directed competition binding assay based Kinomescan method.
Data set [17] concerns the target T2, Mitogen-activated protein kinase kinase kinase kinase 2 (Homo sapiens). The experiment in a line: Inhibition of GCK (unknown origin) assessed as residual enzyme activity at 50 uM by [33P]-ATP filter binding kinase assay relative to control.
The target in data set [18] is Tyrosine-protein kinase JAK1 (Homo sapiens, UniProt P23458). In words: Binding affinity to wild-type human partial length JAK1 JH2 domain-pseudokinase expressed in bacterial expression system by active-site directed competition binding assay based Kinomescan method.
The target of data set [19] is AMP-activated protein kinase, AMPK (Homo sapiens) (UniProt P54646+O43741+P54619+Q9UGJ0+Q9Y478+Q13131+Q9UGI9). In words: Inhibition of AMPK (unknown origin) assessed as residual enzyme activity at 50 uM by [33P]-ATP filter binding kinase assay relative to control. The data set is classed as protein-complex assay.

On to `COc1cc2c(-c3cnc(-c4ccc[nH]4)o3)c[nH]c2cc1Br`, for which the remaining at 1 h, 5 µM in [1] is 92%; in [9], 100%. The Activity in data set [2] stood at 46%; in data set [3], 2%; in data set [4], 72%; in [5], 2.9%; in data set [8], 26%; in data set [13], 100%. In addition, the Activity in data set [14] was determined as 54%; in data set [15] it was 100%; in data set [17] it was 7%. Also, the Kd (usually the equilibrium constant for the complex coming apart) was found to be 4.7 µM in data set [6]; 2.7 µM in [7]; 1.8 µM in [10]; 1.2 µM in data set [11]; 2.9 µM in data set [12]; 2.9 µM in data set [16]. The molecule further showed a dissociation constant Kd in data set [18] of 1 µM. The IC50 (in general, the concentration at which inhibition is half-maximal) with MCF7 amounted to 0.77 µM.
For `COc1cc(Br)cc2[nH]cc(-c3oc(-c4ccc[nH]4)nc3I)c12`, the Activity in data set [19] worked out at 28%.
